Tests used:
Format in all cases: in vivo
[1] = tested on: green foxtail (Setaria viridis, SETVI); experiment: Post-emerge test, greenhouse herbicide activity screening; settings: post-emerge, 14 days after application, rating scale 0-100
How it was run: (§1)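 Rating: 0–100 visual injury, 14 DAA. Application: acetone, 187 l/ha, 15–1000 g ai/ha, flat-fan track sprayer with nozzle 40–45 cm above soil or canopy. Post-emerge runs used 0.25% v/v surfactant on 2–3 leaf plants.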

[2] = tested on: sicklepod (Cassia obtusifolia, CASOB); experiment: as above; settings: post-emerge, 14 days after application, rating scale 0-100
How it was run: as §1

[3] = tested on: large crabgrass (Digitaria sanguinalis, DIGSA); experiment: as above; settings: post-emerge, 14 days after application, rating scale 0-100
How it was run: as §1

[4] = tested on: barnyardgrass (Echinochloa crus-galli, ECHCG); experiment: as above; settings: post-emerge, 14 days after application, rating scale 0-100
How it was run: as §1

[5] = tested on: redroot pigweed (Amaranthus retroflexus, AMARE); experiment: as above; settings: post-emerge, 14 days after application
How it was run: as §1

[6] = tested on: johnsongrass (Sorghum halepense, SORHA); experiment: as above; settings: post-emerge, 14 days after application, rating scale 0-100
How it was run: as §1

[7] = tested on: lambsquarters (Chenopodium album, CHEAL); experiment: as above; settings: post-emerge, 14 days after application, rating scale 0-100
How it was run: as §1

[8] = tested on: velvetleaf (Abutilon theophrasti, ABUTH); experiment: as above; settings: post-emerge, 14 days after application, rating scale 0-100
How it was run: as §1

[9] = tested on: ivyleaf morningglory (Ipomoea hederacea, IPOHE); experiment: as above; settings: post-emerge, 14 days after application, rating scale 0-100
How it was run: as §1

[10] = tested on: field corn (Zea mays L., var. Dekalb 535, CORN); experiment: Pre-emerge test, crop safety; settings: crop damage rating 0-100, 14 days after application
How it was run: (§2)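 Visual ratings on a 0-100 scale (0 no damage, 100 all plants dead) were taken at 14 days after treatment. Rates of 15-1000 g ai/ha in acetone, 187 l/ha, were sprayed onto soil one day after planting (pre-emerge) or onto 2-3 leaf plants with 0.25% v/v surfactant (post-emerge).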

[11] = tested on: upland rice (Oryza sp., var. Tebonnet, RICE); experiment: Pre-emerge test, crop safety; settings: crop damage rating 0-100, 14 days after application
How it was run: as §2

[12] = tested on: redroot pigweed (Amaranthus retroflexus, AMARE); experiment: Pre-emerge test, greenhouse herbicide activity screening; settings: phytotoxicity rating 0-100, 14 days after application
How it was run: as §1

[13] = tested on: field corn (Zea mays L., var. Dekalb 535, CORN); experiment: Post-emerge test, crop safety; settings: post-emerge, 14 days after application, rating scale 0-100
How it was run: (§3)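 Plants grown in 10 cm pots of sandy loam mix received acetone-dissolved compounds through a moving flat-fan nozzle. Doses ranged from 15 to 1000 g ai/ha. Pre-emerge pots were seeded one day earlier, post-emerge pots 8–21 days earlier. Fourteen days on, each pot was graded 0–100 for damage.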

[14] = tested on: upland rice (Oryza sp., var. Tebonnet, RICE); experiment: Post-emerge test, crop safety; settings: post-emerge, 14 days after application, rating scale 0-100
How it was run: as §3

[15] = tested on: green foxtail (Setaria viridis, SETVI); experiment: Pre-emerge test, greenhouse herbicide activity screening; settings: phytotoxicity rating 0-100, 14 days after application
How it was run: as §1

[16] = tested on: sicklepod (Cassia obtusifolia, CASOB); experiment: as above; settings: phytotoxicity rating 0-100, 14 days after application
How it was run: as §1

[17] = tested on: large crabgrass (Digitaria sanguinalis, DIGSA); experiment: as above; settings: phytotoxicity rating 0-100, 14 days after application
How it was run: as §1

[18] = tested on: barnyardgrass (Echinochloa crus-galli, ECHCG); experiment: as above; settings: phytotoxicity rating 0-100, 14 days after application
How it was run: as §1

[19] = tested on: johnsongrass (Sorghum halepense, SORHA); experiment: as above; settings: phytotoxicity rating 0-100, 14 days after application
How it was run: as §1

[20] = tested on: lambsquarters (Chenopodium album, CHEAL); experiment: as above; settings: phytotoxicity rating 0-100, 14 days after application
How it was run: as §1

[21] = tested on: velvetleaf (Abutilon theophrasti, ABUTH); experiment: as above; settings: phytotoxicity rating 0-100, 14 days after application
How it was run: as §1

[22] = tested on: ivyleaf morningglory (Ipomoea hederacea, IPOHE); experiment: as above; settings: phytotoxicity rating 0-100, 14 days after application
How it was run: as §1

[23] = 63 g ai/ha, rating scale 0-100 (0 no damage, 100 complete death)
[24] = 250 g ai/ha, rating scale 0-100

For `COc1c(Cl)cc(F)c(-n2c(=O)cc(C(F)(F)F)n(C)c2=O)c1NC(=O)C1CC1` [2-206], the “phytotoxicity rating SETVI” value ([1]; 63 g ai/ha) was 0, the “phytotoxicity rating SETVI” value ([1]; 250 g ai/ha) was 0 and the “phytotoxicity rating CASOB” value ([2]; 63 g ai/ha) was 50. The “phytotoxicity rating CASOB” value ([2]; 250 g ai/ha) was 80, the “phytotoxicity rating DIGSA” value ([3]; 63 g ai/ha) was 30 and the “phytotoxicity rating DIGSA” value ([3]; 250 g ai/ha) was 20. The “phytotoxicity rating ECHCG” value ([4]; 63 g ai/ha) was 0, the “phytotoxicity rating ECHCG” value ([4]; 250 g ai/ha) was 30 and the “phytotoxicity rating AMARE” value [5, 23] was 20. The “phytotoxicity rating AMARE” value [5, 24] was 50, the “phytotoxicity rating SORHA” value ([6]; 63 g ai/ha) was 0 and the “phytotoxicity rating SORHA” value ([6]; 250 g ai/ha) was 0. For the same molecule, the “phytotoxicity rating CHEAL” value ([7]; 63 g ai/ha) was 50, the “phytotoxicity rating CHEAL” value ([7]; 250 g ai/ha) was 70 and the “phytotoxicity rating ABUTH” value ([8]; 63 g ai/ha) was 50. For the same molecule, the “phytotoxicity rating ABUTH” value ([8]; 250 g ai/ha) was 90, the “phytotoxicity rating IPOHE” value ([9]; 63 g ai/ha) was 70 and the “phytotoxicity rating IPOHE” value ([9]; 250 g ai/ha) was 90. For the same molecule, the “Pre-emerge Herbicidal Activity CORN” value ([10]; 63 g ai/ha) was 50, the “Pre-emerge Herbicidal Activity CORN” value ([10]; 250 g ai/ha) was 100 and the “Pre-emerge Herbicidal Activity RICE” value ([11]; 63 g ai/ha) was 60. For the same molecule, the “Pre-emerge Herbicidal Activity RICE” value ([11]; 250 g ai/ha) was 80, the “Pre-emerge Herbicidal Activity AMARE” value ([12]; 63 g ai/ha) was 0 and the “Pre-emerge Herbicidal Activity AMARE” value ([12]; 250 g ai/ha) was 80. The “phytotoxicity rating CORN (crop damage)” value ([13]; 63 g ai/ha) was 0, the “phytotoxicity rating CORN (crop damage)” value ([13]; 250 g ai/ha) was 0 and the “phytotoxicity rating RICE (crop damage)” value ([14]; 63 g ai/ha) was 0. For the same molecule, the “phytotoxicity rating RICE (crop damage)” value ([14]; 250 g ai/ha) was 70, the “Pre-emerge Herbicidal Activity SETVI” value ([15]; 63 g ai/ha) was 0 and the “Pre-emerge Herbicidal Activity SETVI” value ([15]; 250 g ai/ha) was 70. The “Pre-emerge Herbicidal Activity CASOB” value ([16]; 63 g ai/ha) was 20, the “Pre-emerge Herbicidal Activity CASOB” value ([16]; 250 g ai/ha) was 60 and the “Pre-emerge Herbicidal Activity DIGSA” value ([17]; 63 g ai/ha) was 0. The “Pre-emerge Herbicidal Activity DIGSA” value ([17]; 250 g ai/ha) was 80, the “Pre-emerge Herbicidal Activity ECHCG” value ([18]; 63 g ai/ha) was 0 and the “Pre-emerge Herbicidal Activity ECHCG” value ([18]; 250 g ai/ha) was 90. The “Pre-emerge Herbicidal Activity SORHA” value ([19]; 63 g ai/ha) was 0, the “Pre-emerge Herbicidal Activity SORHA” value ([19]; 250 g ai/ha) was 40 and the “Pre-emerge Herbicidal Activity CHEAL” value ([20]; 63 g ai/ha) was 50. For the same molecule, the “Pre-emerge Herbicidal Activity CHEAL” value ([20]; 250 g ai/ha) was 100, the “Pre-emerge Herbicidal Activity ABUTH” value ([21]; 63 g ai/ha) was 70 and the “Pre-emerge Herbicidal Activity ABUTH” value ([21]; 250 g ai/ha) was 100. For the same molecule, the “Pre-emerge Herbicidal Activity IPOHE” value ([22]; 63 g ai/ha) was 50 and the “Pre-emerge Herbicidal Activity IPOHE” value ([22]; 250 g ai/ha) was 90.
For `COc1c(Cl)cc(F)c(-n2c(=O)cc(C(F)(F)F)n(C)c2=O)c1NC(=O)OCc1ccc(F)cc1` [4-7], the “phytotoxicity rating SETVI” value ([1]; 63 g ai/ha) was 70, the “phytotoxicity rating SETVI” value ([1]; 250 g ai/ha) was 100 and the “phytotoxicity rating CASOB” value ([2]; 63 g ai/ha) was 100. The “phytotoxicity rating CASOB” value ([2]; 250 g ai/ha) was 100, the “phytotoxicity rating DIGSA” value ([3]; 63 g ai/ha) was 40 and the “phytotoxicity rating DIGSA” value ([3]; 250 g ai/ha) was 90. For the same molecule, the “phytotoxicity rating ECHCG” value ([4]; 63 g ai/ha) was 50, the “phytotoxicity rating ECHCG” value ([4]; 250 g ai/ha) was 100 and the “phytotoxicity rating AMARE” value [5, 23] was 100. The “phytotoxicity rating AMARE” value [5, 24] was 100, the “phytotoxicity rating SORHA” value ([6]; 63 g ai/ha) was 90 and the “phytotoxicity rating SORHA” value ([6]; 250 g ai/ha) was 90. For the same molecule, the “phytotoxicity rating CHEAL” value ([7]; 63 g ai/ha) was 100, the “phytotoxicity rating CHEAL” value ([7]; 250 g ai/ha) was 100 and the “phytotoxicity rating ABUTH” value ([8]; 63 g ai/ha) was 100. The “phytotoxicity rating ABUTH” value ([8]; 250 g ai/ha) was 100, the “phytotoxicity rating IPOHE” value ([9]; 63 g ai/ha) was 100 and the “phytotoxicity rating IPOHE” value ([9]; 250 g ai/ha) was 100. For the same molecule, the “Pre-emerge Herbicidal Activity CORN” value ([10]; 63 g ai/ha) was 60, the “Pre-emerge Herbicidal Activity CORN” value ([10]; 250 g ai/ha) was 95 and the “Pre-emerge Herbicidal Activity RICE” value ([11]; 63 g ai/ha) was 70. For the same molecule, the “Pre-emerge Herbicidal Activity RICE” value ([11]; 250 g ai/ha) was 100, the “Pre-emerge Herbicidal Activity AMARE” value ([12]; 63 g ai/ha) was 100 and the “Pre-emerge Herbicidal Activity AMARE” value ([12]; 250 g ai/ha) was 100. For the same molecule, the “phytotoxicity rating CORN (crop damage)” value ([13]; 63 g ai/ha) was 90, the “phytotoxicity rating CORN (crop damage)” value ([13]; 250 g ai/ha) was 100 and the “phytotoxicity rating RICE (crop damage)” value ([14]; 63 g ai/ha) was 65. The “phytotoxicity rating RICE (crop damage)” value ([14]; 250 g ai/ha) was 90, the “Pre-emerge Herbicidal Activity SETVI” value ([15]; 63 g ai/ha) was 100 and the “Pre-emerge Herbicidal Activity SETVI” value ([15]; 250 g ai/ha) was 100. For the same molecule, the “Pre-emerge Herbicidal Activity CASOB” value ([16]; 63 g ai/ha) was 70, the “Pre-emerge Herbicidal Activity CASOB” value ([16]; 250 g ai/ha) was 100 and the “Pre-emerge Herbicidal Activity DIGSA” value ([17]; 63 g ai/ha) was 100. The “Pre-emerge Herbicidal Activity DIGSA” value ([17]; 250 g ai/ha) was 100, the “Pre-emerge Herbicidal Activity ECHCG” value ([18]; 63 g ai/ha) was 70 and the “Pre-emerge Herbicidal Activity ECHCG” value ([18]; 250 g ai/ha) was 90. The “Pre-emerge Herbicidal Activity SORHA” value ([19]; 63 g ai/ha) was 80, the “Pre-emerge Herbicidal Activity SORHA” value ([19]; 250 g ai/ha) was 95 and the “Pre-emerge Herbicidal Activity CHEAL” value ([20]; 63 g ai/ha) was 100. For the same molecule, the “Pre-emerge Herbicidal Activity CHEAL” value ([20]; 250 g ai/ha) was 100, the “Pre-emerge Herbicidal Activity ABUTH” value ([21]; 63 g ai/ha) was 100 and the “Pre-emerge Herbicidal Activity ABUTH” value ([21]; 250 g ai/ha) was 100. For the same molecule, the “Pre-emerge Herbicidal Activity IPOHE” value ([22]; 63 g ai/ha) was 80 and the “Pre-emerge Herbicidal Activity IPOHE” value ([22]; 250 g ai/ha) was 100.

Source: patent US6355799B1, “Substituted benzene compounds, process for their preparation, and herbicidal and defoliant compositions containing them” (ISK Americas Incorporated, priority 1997, dated 2002)
